Literature values, collected in PubChem BioAssay AID1259409 (Chemical Carcinogenesis Research Information System (CCRIS), 2018).

System: rodent chemically induced tumor inhibition, incidence and multiplicity
Assay: CCRIS tumor inhibitor studies

CC(=O)Oc1ccccc1C(=O)O
tumour outcome (control, treated, inhibition, significance) (Carcinogen: 1,2-DIMETHYLHYDRAZINE DIHYDROCHLORIDE, 306-37-6, Dose [Inhibitor]: 0, 10 MG/KG/D IN 0.2 ML OF 5% SODIUM BICARBONATE FOR 1 WK PRIOR +0 AND 1 WK POST CARCINOGEN DOSE (STUDY DURATION: 36 WK), Route [Inhibitor]: SUBCUTANEOUS, Species: RAT, Strain/Sex: SPRAGUE-DAWLEY/MALE, Target Tissue: Type of Lesion: COLON: ADENOCARCINOMA, Dose [Carcinogen]: 30 MG/KG ONCE, Promoter: NONE USED): 50%, 17%, 66%, p<0.05 | tumour outcome (control, treated, inhibition, significance) (Carcinogen: 1,2-DIMETHYLHYDRAZINE DIHYDROCHLORIDE, 306-37-6, Dose [Inhibitor]: 0, 50 MG/KG/D IN 0.6 ML OF 5% SODIUM BICARBONATE BEGINNING 4 WK POST CARCINOGEN DOSE AND CONTINUING FOR DURATION OF STUD, Route [Inhibitor]: SUBCUTANEOUS, Species: RAT, Strain/Sex: SPRAGUE-DAWLEY/MALE, Target Tissue: Type of Lesion: COLON: ADENOCARCINOMA, Dose [Carcinogen]: 30 MG/KG ONCE, Promoter: NONE USED): 42%, 42%, 0%, not significant | tumour outcome (control, treated, inhibition, significance) (Carcinogen: 2-AMINO-1-METHYL-6-PHENYLIMIDAZO[4,5-B]PYRIDINE [105650-23-5], Dose [Inhibitor]: 400 PPM IN DIET FOR 4 WK BEGINNING WK PRIOR TO FIRST CARCINOGEN DOSE (STUDY DURATION: 25 WK), Route [Inhibitor]: ORAL, Species: RAT, Strain/Sex: SPRAGUE-DAWLEY/FEMALE, Target Tissue: Type of Lesion: MAMMARY GLAND: FIBROADENOMA OR DUCTAL CARCINOMA, Dose [Carcinogen]: 85 MG/KG BW 2X/WK FOR 4 WK (STUDY DURATION: 25 WK), Promoter: NONE): 67.7%, 50.0%, 26%, not significant | tumour outcome (control, treated, inhibition, significance) (Carcinogen: 2-AMINO-1-METHYL-6-PHENYLIMIDAZO[4,5-B]PYRIDINE, 105650-23-5, Dose [Inhibitor]: 0, 400 PPM IN HIGH FAT DIET FOR 4 WK BEGINNING 1 WK PRIOR TO CARCINOGEN TREATMENT (STUDY DURATION: 25 WK), Route [Inhibitor]: ORAL, Species: RAT, Strain/Sex: SPRAGUE-DAWLEY/FEMALE, Target Tissue: Type of Lesion: MAMMARY GLAND: CARCINOMA, Dose [Carcinogen]: 85 MG/KG BW IN CORN OIL 8 TIMES IN 10 D, Promoter: NONE USED): 21/31 (68%), 14/30 (47%), 31%, not significant | tumour outcome (control, treated, inhibition, significance) (Carcinogen: 2-AMINO-1-METHYL-6-PHENYLIMIDAZO[4,5-B]PYRIDINE, 105650-23-5, Dose [Inhibitor]: 0, 400 PPM IN HIGH FAT DIET FOR 4 WK BEGINNING 1 WK PRIOR TO CARCINOGEN TREATMENT (STUDY DURATION: 25 WK), Route [Inhibitor]: ORAL, Species: RAT, Strain/Sex: SPRAGUE-DAWLEY/FEMALE, Target Tissue: Type of Lesion: MAMMARY GLAND: FIBROADENOMA, Dose [Carcinogen]: 85 MG/KG BW IN CORN OIL 8 TIMES IN 10 D, Promoter: NONE USED): 3/31 (10%), 2/30 (7%), 30%, not significant | tumour outcome (control, treated, inhibition, significance) (Carcinogen: 4-(METHYLNITROSAMINO)-1-(3-PYRIDYL)-1-BUTANONE, 64091-91-4, Dose [Inhibitor]: 0, 32 MG/KG BW BUFFERED ASPIRIN IN DIET FOR DURATION OF STUDY BEGINNING 2 WK PRIOR TO CARCINOGEN TREATMENT (STUDY DURATI, Route [Inhibitor]: ORAL, Species: MOUSE, Strain/Sex: STRAIN-A/FEMALE, Target Tissue: Type of Lesion: LUNG: TUMOR, Dose [Carcinogen]: 9.1 MG/MOUSE (TOTAL DOSE) ADMINISTERED IN DRINKING WATER OVER 7 WK, Promoter: NONE USED): 23/24 (96%), 15/15 (100%), -4%, not significant | tumour outcome (control, treated, inhibition, significance) (Carcinogen: 4-(METHYLNITROSAMINO)-1-(3-PYRIDYL)-1-BUTANONE, 64091-91-4, Dose [Inhibitor]: 0, 32 MG/KG BW NON-BUFFERED ASPIRIN IN DIET FOR DURATION OF STUDY BEGINNING 2 WK PRIOR TO CARCINOGEN TREATMENT (STUDY DU, Route [Inhibitor]: ORAL, Species: MOUSE, Strain/Sex: STRAIN-A/FEMALE, Target Tissue: Type of Lesion: LUNG: TUMOR, Dose [Carcinogen]: 9.1 MG/MOUSE (TOTAL DOSE) ADMINISTERED IN DRINKING WATER OVER 7 WK, Promoter: NONE USED): 23/24 (96%), 14/14 (100%), -4%, not significant | tumour outcome (control, treated, inhibition, significance) (Carcinogen: 4-(METHYLNITROSAMINO)-1-(3-PYRIDYL)-1-BUTANONE, 64091-91-4, Dose [Inhibitor]: 0, 35 MG/KG BW IN DIET FOR DURATION OF STUDY BEGINNING 2 WK PRIOR TO CARCINOGEN TREATMENT (STUDY DURATION: 25 WK), Route [Inhibitor]: ORAL, Species: MOUSE, Strain/Sex: STRAIN-A/FEMALE, Target Tissue: Type of Lesion: LUNG: TUMOR, Dose [Carcinogen]: 9.1 MG/MOUSE (TOTAL DOSE) ADMINISTERED IN DRINKING WATER OVER 7 WK, Promoter: NONE USED): 23/24 (96%), 14/15 (93%), 3%, not significant | tumour outcome (control, treated, inhibition, significance) (Carcinogen: 4-(METHYLNITROSAMINO)-1-(3-PYRIDYL)-1-BUTANONE, 64091-91-4, Dose [Inhibitor]: 0, 73 MMOL/KG BW/D IN DIET FOR DURATION OF STUDY BEGINNING 2 WK PRIOR TO CARCINOGEN TREATMENT (STUDY DURATION: 25 WK), Route [Inhibitor]: ORAL, Species: MOUSE, Strain/Sex: STRAIN-A/FEMALE, Target Tissue: Type of Lesion: LUNG: TUMOR, Dose [Carcinogen]: 2.2 MMOL/KG BW (TOTAL DOSE) ADMINISTERED IN DRINKING WATER FOR 7 WK, Promoter: NONE USED): 29/29 (100%), 25/25 (100%), 0%, not significant
